In ChEMBL document CHEMBL4390660, “Synthesis and biological evaluation of marine alkaloid-oriented β-carboline analogues” (Eur J Med Chem, 2019):

Assays:
[1] = system: SGC-7901; experiment: Cytotoxicity against human SGC7901 cells assessed as growth inhibition after 72 hrs by MTT assay; type: functional, cell-based; conditions: SGC-7901, 72 h
[2] = Cytotoxicity against human A875 cells assessed as growth inhibition at 40 ug/mL after 72 hrs by MTT assay; type: functional; conditions: A875, 72 h, read-out: GI
[3] = Cytotoxicity against human A875 cells assessed as growth inhibition after 72 hrs by MTT assay; type: functional, cell-based; conditions: A875, 72 h
[4] = system: HepG2; experiment: Cytotoxicity against human HepG2 cells assessed as growth inhibition at 40 ug/mL after 72 hrs by MTT assay; type: functional; conditions: HepG2, 72 h, read-out: GI
[5] = Cytotoxicity against African green monkey MARC145 cells assessed as growth inhibition after 72 hrs by MTT assay; type: functional, cell-based; conditions: Chlorocebus aethiops, MARC145, 72 h
[6] = Cytotoxicity against African green monkey MARC145 cells assessed as growth inhibition at 40 ug/mL after 72 hrs by MTT assay; type: functional; conditions: Chlorocebus aethiops, MARC145, 72 h; read-out: GI
[7] = system: HepG2; experiment: Cytotoxicity against human HepG2 cells assessed as growth inhibition after 72 hrs by MTT assay; type: functional, cell-based; conditions: HepG2, 72 h
[8] = system: SGC-7901; experiment: Cytotoxicity against human SGC7901 cells assessed as growth inhibition at 40 ug/mL after 72 hrs by MTT assay; type: functional; conditions: SGC-7901, 72 h, read-out: GI

| Structure (SMILES) | IC50 [1] | inhibition of growth at 40 µg/mL [2] | IC50 [3] | inhibition of growth at 40 µg/mL [4] | IC50 [5] | inhibition of growth at 40 µg/mL [6] | IC50 [7] | inhibition of growth at 40 µg/mL [8] |
| --- | --- | --- | --- | --- | --- | --- | --- | --- |
| CS(=O)(=O)CCNC(=O)c1cc2c([nH]c3ccccc32)c(C(=O)c2c[nH]c3ccccc23)n1 | 6.82 µM | 87.9% | 8.43 µM | 87.3% | 7.19 µM | 90.2% | 7.69 µM | 88.5% |
| O=C(Nc1ccc(F)cc1)c1cc2c([nH]c3ccccc32)c(C(=O)c2c[nH]c3ccccc23)n1 | > 85 µM | 20.7% | > 85 µM | 34.8% | > 85 µM | 47.5% | > 85 µM | 34% |
| O=C(c1c[nH]c2ccccc12)c1nccc2c1[nH]c1ccccc12 | > 120 µM | 59.1% | 75.8 µM | 30.5% | > 120 µM | 34.6% | > 120 µM | 43.2% |
| COc1ccc(NC(=O)c2cc3c([nH]c4ccccc43)c(C(=O)c3c[nH]c4ccccc34)n2)cc1 | > 85 µM | 72.1% | 65.4 µM | 44.8% | > 85 µM | 42% | > 85 µM | 41.2% |
| Cc1ccc(CNC(=O)c2cc3c([nH]c4ccccc43)c(C(=O)c3c[nH]c4ccccc34)n2)cc1 | 66 µM | 27% | > 85 µM | 63.9% | 73.2 µM | 55% | 65.3 µM | 64% |
| COc1ccc(CCNC(=O)c2cc3c([nH]c4ccccc43)c(C(=O)c3c[nH]c4ccccc34)n2)cc1OC | > 75 µM | 0% | > 75 µM | 31.7% | > 75 µM | 38.4% | > 75 µM | 22.1% |
| O=C(NCCc1cccc(O)c1)c1cc2c([nH]c3ccccc32)c(C(=O)c2c[nH]c3ccccc23)n1 | 17.7 µM | 87.5% | 11.9 µM | 86.9% | 13.8 µM | 83.2% | 8.63 µM | 88.3% |
| O=C(NCc1cccnc1)c1cc2c([nH]c3ccccc32)c(C(=O)c2c[nH]c3ccccc23)n1 | 33.1 µM | 74.2% | 25.2 µM | 82.8% | 20.8 µM | 73.8% | 18.5 µM | 70.1% |
| O=C(NCCc1ccccc1)c1cc2c([nH]c3ccccc32)c(C(=O)c2c[nH]c3ccccc23)n1 | 23 µM | 77.1% | 44.8 µM | 82.3% | 25.9 µM | 79.8% | 19.8 µM | 84.5% |
| O=C(NCCc1c[nH]c2ccccc12)c1cc2c([nH]c3ccccc32)c(C(=O)c2c[nH]c3ccccc23)n1 | 38.6 µM | 77.8% | 50.4 µM | 74.4% | 44.1 µM | 67% | 41 µM | 76.6% |
| COc1cc(CNC(=O)c2cc3c([nH]c4ccccc43)c(C(=O)c3c[nH]c4ccccc34)n2)ccc1O | 16.2 µM | 81.7% | 8.47 µM | 80.9% | 21.8 µM | 79.1% | 11.1 µM | 83.1% |
| COC(=O)C(CO)NC(=O)c1cc2c([nH]c3ccccc32)c(C(=O)c2c[nH]c3ccccc23)n1 (stereo not given) | 14.3 µM | 83.9% | 10.5 µM | 79% | 16.3 µM | 83.2% | 9.99 µM | 82.7% |
| O=C(NCc1ccccn1)c1cc2c([nH]c3ccccc32)c(C(=O)c2c[nH]c3ccccc23)n1 | 43.9 µM | 70.7% | 42.5 µM | 79.6% | 33.8 µM | 66.2% | 26.3 µM | 69.5% |
| COC(=O)c1cc2c([nH]c3ccccc32)c(C(=O)c2c[nH]c3ccccc23)n1 | > 100 µM | 36.8% | > 100 µM | 62.7% | > 100 µM | 35.9% | > 100 µM | 48.6% |
| O=C(NCCc1ccc(F)cc1)c1cc2c([nH]c3ccccc32)c(C(=O)c2c[nH]c3ccccc23)n1 | 34 µM | 33.9% | > 80 µM | 72.4% | 48.8 µM | 63% | 38.5 µM | 76.7% |
| O=C(O)c1cc2c([nH]c3ccccc32)c(C(=O)c2c[nH]c3ccccc23)n1 | 67.7 µM | 72.2% | 48.8 µM | 78.4% | 41.9 µM | 72% | 51.8 µM | 63% |
| O=c1[nH]cc(F)c(=O)[nH]1 [FLUOROURACIL] | 53.6 µM | 61% | 62.1 µM | 72.6% | 116 µM | 66.7% | 66.4 µM | 79.9% |
| O=C(NCc1ccc(F)cc1)c1cc2c([nH]c3ccccc32)c(C(=O)c2c[nH]c3ccccc23)n1 | 34.5 µM | 68.1% | 63.1 µM | 73.9% | 55.1 µM | 63.8% | 39 µM | 78.8% |
| O=C(NCc1ccccc1)c1cc2c([nH]c3ccccc32)c(C(=O)c2c[nH]c3ccccc23)n1 | 39.9 µM | 75.5% | 56.4 µM | 77.3% | 42.8 µM | 67.4% | 36.2 µM | 79% |
| COc1cccc(CCNC(=O)c2cc3c([nH]c4ccccc43)c(C(=O)c3c[nH]c4ccccc34)n2)c1 | > 80 µM | 16.6% | > 80 µM | 40.1% | > 80 µM | 48.4% | > 80 µM | 39.3% |
